Reference: patent publication EP2345639A1, “Cyclic hydroxylamine derivatives, their preparation and use as antioxidants” (ABIOGEN PHARMA S.p.A., priority 2009, dated 2011)
Like-named read-outs stand apart in the source and are kept apart here.

Experiments:
[1] = tested on: doxorubicin-induced cerebral oxidative stress in mice; assay: In vivo assay of cerebral oxidative stress induced in mice by doxorubicin (model and oxidized animals); details: for inhibition in vivo at 50 mg/kg / change in vivo at 50 mg/kg: Mus musculus; for inhibition in vivo at 50 mg/kg: read-out: inhibition of the doxorubicin effect; for change in vivo at 50 mg/kg / mean % effect relative to doxorubicin alone, all parameters (Vehicle): oxidized mice; for mean % effect relative to doxorubicin alone, all parameters (Vehicle): computed as a function of the vehicle
Method: The assay was carried out on compounds (1)-(5) and (7)-(11) and on edaravone (E) as comparative compound.
10 mice were used for each treatment group. For each compound 50 mg/kg were administered intraperitoneally (IP) for three consecutive days (day 0, 1 and 2); half the animals (5) also received IP 16.7 mg/kg of doxorubicin immediately after the first treatment (day 0). On the day after the last administration (day 3) the animals were killed by neck dislocation and the brains were removed, weighed and frozen in liquid nitrogen.
For the analyses of oxidative stress, 100 mg/ml of brain homogenate was prepared in HEB^(*) buffer (pH 7.4 EDTA/HEPES^(**)) containing a mixture of enzyme inhibitors (Leupeptin, Pepstatin, Aprotinin, BHA).
The evaluation parameters were: • BrW/BWi: ratio between final brain weight and initial body weight (day 0); • Prot. Hmg: total proteins in the homogenate (BCA method, i.e. bicinchoninic acid); • Prot. Ox: oxidized proteins in the Hmg by means of a colorimetric method using dinitrophenylhydrazone (DNPH); • GSH: reduced glutathione in the supernatant (sn) of the Hmg, obtained after precipitation with metaphosphoric acid (MPA), by means of a colorimetric method using dithiodinitrobenzene (DTNB); • CAT: catalase in the Hmg by a colorimetric method using potassium dichromate; • SOD: superoxide dismutase by a colorimetric method using SOD Reagent (xanthine, EDTA, nitroblue tetrazole, Na2CO3, BSA, i.e. bovine serum albumin); • GST: glutathione S-transferase in the supernatant by a colorimetric method using chlorodinitrobenzene (CDNB) and GSH; and • GPx: glutathione peroxidase in the supernatant after addition of GSH and t-BuOOH, heating and precipitation with MPA; followed by GSH method with DTNB. The assay was performed on the compounds (1)-(5) and (7)-(11) and on edaravone (E), as comparative compound.
The mean effect (n=5 experiments) of doxorubicin (D), i.e. "oxidized" animal, relative to the vehicle (V), the vehicle representing the healthy animal.
All the parameters, with the exclusion of Brain/BWi and Prot. Hmg, were normalized for total Hmg proteins. The D value standard deviations and the % incidence relative to V are given in italics.
The effect of the tested compounds on the "oxidized" animals was given as % inhibition relative to the percentage change due to doxorubicin alone. The effect of the compounds on the oxidized animals can be expressed both as a function of the values of the vehicle (healthy, vehicle only) and as a function of the value of its own (healthy, compound only): • Vehicle: percentage [(Compound+D)/V]x100/[(V+D)/V]x100 • Its own: percentage [(Compound+D)/Compound]x100/[(V+D)/V]x100
Again in this case, the mean % effect relative to doxorubicin alone could be given for all the parameters simultaneously, as an approximate index of effectiveness on the cerebral oxidative state of the animal.

[2] = Brain-to-plasma concentration ratio in mice; type: in vivo, Female CD-1 mice; details: female, CD-1, mouse, ip, 25 mg/kg intraperitoneal, area under the curve of brain and plasma concentrations 0 to 60 minutes, read-out: B/P ratio
Method: The ability of the compounds of the invention to penetrate the brain was investigated by measuring their brain/plasma (B/P) ratio in mice following intraperitoneal administration.
Female CD-1 mice were used (n=3 for each time period) and received the compounds of the invention by intraperitoneal administration, in 25 mg/kg doses in a 0.5% NaHCO3 buffer (pH 8.3). At predefined intervals following said administration, i.e. 5, 15, 30 and 60 minutes, the mice were killed and both plasma and total brain tissue were collected.
Specifically, after anaesthesia with ether, the animals were bled by blood withdrawal from the abdominal aorta then immediately decapitated. The blood samples were collected into plasma separator tubes containing Li-Heparin as anticoagulant and centrifuged. The resulting plasma was then stored at -20 °C. The brain was rapidly removed from the cranium and weighed, subsequently frozen and stored at -20 °C before treatment by homogenization and HPLC analysis.
The plasma was thawed and mixed with an equal volume of the extraction solution.
1 ml of solution was then extracted by adding 20 µl of 70% HClO4, then centrifuged at 15,500g for 5 minutes and injected into the HPLC.
Each brain was thawed and homogenized with the extraction solution to provide a final composition of 4 ml/1g of tissue by means of an Ultra-Turrax blender and sonicated for 5 minutes. After centrifugation of the homogenate at 15,500g for 5 minutes, the resulting solution was treated with HClO4, as indicated for the plasma. Specific chromatographic conditions had been developed for each analyte, the calibration curve being constructed for plasma and brain homogenate.

[3] = TEAC method (Trolox Equivalent Antioxidant Capacity Assay); type: biochemical; details: ratio of gradient to gradient of Trolox; 650 nm, 37 °C, about 90 minutes
Description: This assay is used to measure the total antioxidant activity of pure substances, biological fluids and plant compounds and is based on the reaction of antioxidants with the cation radical ABTS·^+ (2,2'-azinobis(3-ethylbenzothiazolin-6-sulphonate)). This cation radical is metastable and has to be generated just before the experiment by reacting ABTS with hydrogen peroxide in the presence of HRP. This radical can be reduced, with consequent loss of absorbance, by an antioxidant whose scavenging capacity can be measured spectrophotometrically at 650 nm. The test is carried out at 37 °C and the results are obtained from a comparison with Trolox (a synthetic antioxidant and hydrophilic analogue of vitamin E).
The ABTS solution S1 was prepared as follows: • 20 mg of ABTS were added to 50 mM of citric acid buffer (40 ml) at pH=4.5 and to the resulting solution there was added an aqueous solution of HRP (4.4 mg, 400 µl) and an aqueous solution of H2O2 (10 µl of a 30% solution diluted with 16.3 ml of water).
For each of the compounds (1)-(11), as synthesized above, there was prepared a 600 µM solution in water, methanol or DMSO according to its solubility, as well as a Trolox solution as reference.
Each solution was diluted to produce 6 solutions each at a concentration between 25 µM and 300 µM. From each of the diluted and divided solutions, there were withdrawn 20 µl to which 200 µl of solution S1 were then added.
The decrease in absorbance of each solution thus obtained was monitored at 650 nm until a stable value was reached (about 90 minutes).
For each set of 6 solutions and for the reference trolox solution, the absorption was given in graph form as a function of the amount of compound (nmol) in the solution. The gradient of the straight line obtained by linear interpolation was determined according to the least squares method. The TEAC value of each compound of the invention is given in the table below and is expressed as the ratio between the gradient of the resulting straight line and the gradient of the reference (trolox) straight line.

[4] = Acid dissociation constants (pKa) by titration; type: physicochemical; details: pH at semi-neutralization point of titration with 0.1 N NaOH or HCl
Method: The following equipment was used during the implementation of all the examples: • for melting point determination a Buchi B-540 instrument was used; • the pKa is the pH at the semi-neutralization point of titration using a Mettler Toledo DL-50 instrument with a 0.1 N NaOH or HC! solution; • the ^1H-NMR spectra were recorded at 300 MHz and the ^13C-NMR spectra were recorded at 75 MHz using a Varian Unity 300 instrument; • spectrophotometric measurements were carried out using a Lambda Perkin Elmer 15 UV/Vis spectrophotometer for the DPPH assay and a Wallac Victor 1420 multilabel counter spectrophotometer.

[5] = ip, overall, compared with its own vehicle
[6] = ip, overall, with respect to the vehicle
[7] = ip, % inhibition relative to change due to doxorubicin alone, vs its own, read-out: Brain/BWi its own
[8] = ip, % inhibition relative to change due to doxorubicin alone, vs its own, read-out: CAT/pr its own
[9] = ip, % inhibition relative to change due to doxorubicin alone, vs its own, read-out: GPX/pr its own
[10] = ip, % inhibition relative to change due to doxorubicin alone, vs its own, read-out: GSH/pr its own
[11] = ip, % inhibition relative to change due to doxorubicin alone, vs its own, read-out: GST/pr its own
[12] = ip, % inhibition relative to change due to doxorubicin alone, vs its own, read-out: Prot. Hmg its own
[13] = ip, % inhibition relative to change due to doxorubicin alone, vs its own, read-out: Prot. Ox/pr its own
[14] = ip, % inhibition relative to change due to doxorubicin alone, vs its own, read-out: SOD/pr its own
[15] = ip, % inhibition relative to change due to doxorubicin alone, vs vehicle, read-out: Brain/BWi vehicle
[16] = ip, % inhibition relative to change due to doxorubicin alone, vs vehicle, read-out: CAT/pr vehicle
[17] = ip, % inhibition relative to change due to doxorubicin alone, vs vehicle, read-out: GPX/pr vehicle
[18] = ip, % inhibition relative to change due to doxorubicin alone, vs vehicle, read-out: GSH/pr vehicle
[19] = ip, % inhibition relative to change due to doxorubicin alone, vs vehicle, read-out: GST/pr vehicle
[20] = ip, % inhibition relative to change due to doxorubicin alone, vs vehicle, read-out: Prot. Hmg vehicle
[21] = ip, % inhibition relative to change due to doxorubicin alone, vs vehicle, read-out: Prot. Ox/pr vehicle
[22] = ip, % inhibition relative to change due to doxorubicin alone, vs vehicle, read-out: SOD/pr vehicle
[23] = 50 mg/kg IP x3 days + doxorubicin, computed as a function of its own (healthy, compound only), read-out: mean % effect relative to doxorubicin alone, all parameters (Its own)
[24] = 50 mg/kg IP x3 days + doxorubicin

| Structure (SMILES) | Kp [2] | inhibition in vivo at 50 mg/kg [1, 5] [%] | change in vivo at 50 mg/kg [1, 7] [%] | change in vivo at 50 mg/kg [1, 8] [%] | change in vivo at 50 mg/kg [1, 9] [%] | change in vivo at 50 mg/kg [1, 10] [%] | change in vivo at 50 mg/kg [1, 11] [%] | change in vivo at 50 mg/kg [1, 12] [%] | change in vivo at 50 mg/kg [1, 13] [%] | change in vivo at 50 mg/kg [1, 14] [%] | change in vivo at 50 mg/kg [1, 15] [%] | change in vivo at 50 mg/kg [1, 16] [%] | change in vivo at 50 mg/kg [1, 17] [%] | change in vivo at 50 mg/kg [1, 18] [%] | change in vivo at 50 mg/kg [1, 19] [%] | change in vivo at 50 mg/kg [1, 20] [%] | change in vivo at 50 mg/kg [1, 21] [%] | change in vivo at 50 mg/kg [1, 22] [%] | change in vivo at 50 mg/kg [1, 23] [%] | TEAC [3] | further results |
| --- | --- | --- | --- | --- | --- | --- | --- | --- | --- | --- | --- | --- | --- | --- | --- | --- | --- | --- | --- | --- | --- |
| CC1(C)CC(=O)C(C2CCCCN2O)C(=O)C1 (stereo not drawn) [(3), 2-(1-hydroxypiperidin-2-yl)-5,5-dimethylcyclohexane-1,3-dione] | > 0.1 |  | 7.2 | -87.1 | -108 | -11.2 | -50.5 | -125 | 195 | 30.8 | -53.6 | -23.5 | -91.9 | -49.6 | -110 | -114 | -45.9 | 86.7 | -76.6 | 1.0 | pKa1 [4]: 3.47; pKa2 [4]: 6.92; inhibition in vivo at 50 mg/kg [1, 6]: ≥ 50%; inhibition of the doxorubicin effect ([1]; overall, compared with its own vehicle): at the level of edaravone; mean % effect relative to doxorubicin alone, all parameters (Vehicle) [1, 24]: -50.3% |
| O=C1c2ccccc2C(=O)C1C1COCCN1O (stereo not drawn) [(8), 2-(4-hydroxymorpholin-3-yl)-2H-indene-1,3-dione] |  | 45 to 50 | -103 | -28.8 | -2 | -139 | -14.3 | -20.5 | -96.5 | -11.9 | 0 | 27.3 | 29.3 | -48 | 68.1 | 49.4 | -65.7 | 11.9 | -45.6 | 1.5 | pKa1 [4]: 2.17; pKa2 [4]: 5.98 |

The next lines start with results.

| Kp [2] | Structure (SMILES) | inhibition in vivo at 50 mg/kg [1, 5] [%] | change in vivo at 50 mg/kg [1, 7] [%] | change in vivo at 50 mg/kg [1, 8] [%] | change in vivo at 50 mg/kg [1, 9] [%] | change in vivo at 50 mg/kg [1, 10] [%] | change in vivo at 50 mg/kg [1, 11] [%] | change in vivo at 50 mg/kg [1, 12] [%] | change in vivo at 50 mg/kg [1, 13] [%] | change in vivo at 50 mg/kg [1, 14] [%] | change in vivo at 50 mg/kg [1, 15] [%] | change in vivo at 50 mg/kg [1, 16] [%] | change in vivo at 50 mg/kg [1, 17] [%] | change in vivo at 50 mg/kg [1, 18] [%] | change in vivo at 50 mg/kg [1, 19] [%] | change in vivo at 50 mg/kg [1, 20] [%] | change in vivo at 50 mg/kg [1, 21] [%] | change in vivo at 50 mg/kg [1, 22] [%] | change in vivo at 50 mg/kg [1, 23] [%] | TEAC [3] | further results |
| --- | --- | --- | --- | --- | --- | --- | --- | --- | --- | --- | --- | --- | --- | --- | --- | --- | --- | --- | --- | --- | --- |
| 0.123 | CC1=NN(c2ccccc2)C(=O)C1 [edaravone, reference compound] | 75 | -13 | -120 | -130 | -111 | -126 | -117 | -5.2 | -49 | -44.9 | -100 | -106 | -59.2 | -110 | -102 | -22.7 | -32.9 | -77.2 | 0.9 | inhibition in vivo at 50 mg/kg [1, 6]: ~75%; mean % effect relative to doxorubicin alone, all parameters (Vehicle) [1, 24]: -72.3% |
| > 0.1 | O=C1CCC(=O)C1C1COCCN1O (stereo not drawn) [(7), 2-(4-hydroxymorpholin-3-yl)-cyclopentane-1,3-dione] | ~85 | -85.5 | -45.5 | -30.3 | -138 | -29.7 | -48.2 | 20.3 | -23.8 | 21.7 | 2.3 | -23.2 | -60.8 | -22 | -14.5 | -22.1 | -25.9 | -85.5 | 1.5 | pKa1 [4]: 2.32; pKa2 [4]: 4.98 |
| > 0.1 | CC1=NN(c2ccccc2)C(=O)C1C1COCCN1O (stereo not drawn) [(11), 4-(4-hydroxymorpholin-3-yl)-3-methyl-1-phenyl-1H-pyrazol-5(4H)-one] | ~65 | -23.2 | 36.4 | -7.1 | -21.6 | -2.2 | -15.7 | -84.3 | -2.1 | 11.6 | 60.6 | 9.1 | -16 | 1.1 | -2.4 | -69.8 | 18.9 | -64.7 | 2.0 | pKa1 [4]: 3.31; pKa2 [4]: 6.92 |
